# Measurements: patent US20150359794A1, “IMPAIRMENT OF THE LARGE RIBOSOMAL SUBUNIT PROTEIN RPL24 BY DEPLETION OR ACETYLATION” (Buck Institute for Research on Aging, priority 2014, published 2015)
# What was measured:
# [1] = system: HER2 mRNA; assay: Northern blot of HER2 transcript levels; format: cell-based, human; settings: SKBR3 cells, TSA 1 μM, 6 h
# Experimental: (§1) Previous studies have shown that pan-inhibitors of class I and II histone deacetylases, like TSA, can rapidly destabilize a number of oncogenic transcripts including HER2 in a cycloheximide-dependent manner (FIG. 9). […] Thus, SKBR3 cells were treated with TSA to evaluate polysome protein acetylation and determine if, similar to RPL24 depletion, histone deacetylase inhibition can affect ribosome assembly dynamics. To detect early (2 h) ribosome or polysome acetylation following histone deacetylase inhibition treatment (1 μM TSA), SKBR3 polysomes were isolated using a discontinuous sucrose gradient as previously described. […] Mass spectrometry studies indicate that 15 ribosomal proteins, 11 large subunit proteins (RPL24 included) and 4 small subunit proteins, underwent at least a two-fold induction in acetylation following 2 h or 6 h TSA treatment (1 μM) (FIG. 4b, FIG. 10a-q).
# Cells are harvested and RNA is extracted using Trizol (Life Technologies) per manufacturer's protocol. Northern blots are performed as previously described. Briefly, RNA is then electrophoresed into 1% agarose-formaldehyde gels and transferred onto PVDF membranes. Membranes are then hybridized with ^32P-labelled cDNA probes for HER2 or GAPDH, washed, and visualized by autoradiography.
# SKBR3 cells were treated with TSA (1 μM, 6 h) and/or cycloheximide (CX, 50 μg/ml, 6 h) or with the respective vehicle controls. […]
# [2] = system: ribosomal protein; assay: Acetyl-lysine western blot of ribopellets (ribosomal protein acetylation); format: cell-based, human; settings: SKBR3 cells
# Experimental: as §1
# Like TSA, the HDAC6 (class IIb)-selective inhibitors, Tubacin and Compound 101, as well as HDAC6 siRNA, all induce tubulin acetylation as expected as well as ribosomal protein acetylation, including the band that co-migrates with RPL24 (FIG. 4c,d, indicated by arrows). […] Thus, the tubulin acetylating effects of pan-histone deacetylase inhibition, known to be mediated by inhibition or knockdown of HDAC6, correspond to the observed ribosome and RPL24 acetylation responses induced by TSA.
# Cells are lysed in RIPA buffer (10 mM Tris-HCL (pH 8.0), 1 mM EDTA, 0.5 mM EGTA, 1% triton X-100, 0.1% sodium deoxycholate, 0.1% SDS, 140 mM NaCl, 20 mM NaF, Complete EDTA-free protease inhibitor tablets (Roche Diagnostics Corp., Basel, Switzerland) and the phosphatase inhibitor cocktail PhosSTOP (Roche)), the latter two as indicated by the manufacturer's protocol. Equal amounts of protein are diluted in 2× sample buffer. Immunoblots on PVDF (Polyvinyldene Fluoride) membranes are blocked with nonfat milk in tris-buffered saline with 0.05% tween-20 (TBST). The following antibodies are incubated with membranes in 5% nonfat milk in TBST: RPL24 (Proteintech, Chicago, Ill.), Cyclin D1, Rack1, RPL4 (Santa Cruz Biotechnology, Santa Cruz, Calif.), NBS1, GAPDH (EMD Millipore Corporation, Chicago, Ill.), Survivin, β-tubulin, acetyl-lysine, eIF6, acetyl-H2B, H2B, (Cell Signaling Technology, Boston, Mass.), acetyl-tubulin, tubulin (Sigma Aldrich (St. Louis, Mo.))
# Cells, plated at […] confluency, are treated as indicated. After treatment, cells are treated with 50 μg/ml cycloheximide for 15 minutes. Cells are lysed with a buffer containing 10 mM HEPES, 10 mM KCl, 75 mM NaCl, 10 mM MgCl2, 0.35% NP40, pH 7.9 supplemented with Complete EDTA-free protease inhibitor tablets, PhosSTOP phosphatase inhibitor tablets (Roche) per manufacturer's instructions, 50 μg/ml cycloheximide, SUPERase RNase inhibitors (Life Technologies) per manufacturer's instructions, 15 μM TSA, and 5 mM nicotinimide to inhibit histone deacetylases. Supernatants are collected as cytoplasmic preparations. Where indicated, pellets containing nuclei are resuspended in RIPA buffer (described above). The suspension is spun at 13,000 rpm for 5 min and supernatants are collected as nuclear preparations.
# Ribosomes are subsequently isolated from cytoplasmic preparations as described previously. Briefly, lysates are layered on top of a 12% and 33% discontinuous sucrose gradient and spun at 38,000 rpm for 2 h. The resulting polysome pellet is then resuspended, stripped of RNA with acetic acid, and then pelleted with acetone. The pellet is then resuspended in 8 M urea, 2% CHAPS, and 25 mM dithiothreitol (DTT).
# FIG. 4: Ribosomal protein acetylation is induced by histone deacetylase inhibition. (a-c) SKBR3 cells were treated with the indicated drugs for the indicated period of time. (d) SKBR3 cells were transfected with the indicated siRNAs and allowed to incubate for 72 hours. (a, c, d). The indicated western blots were performed in ribopellets, total cytoplasmic lysates, or nuclear extracts. […]
structure (smiles),measurement,setting,value
"CC(/C=C/C(=O)NO)=C\[C@@H](C)C(=O)c1ccc(N(C)C)cc1 [TSA, trichostatin-A]",HER2 mRNA decay,[1],TSA-induced HER2 mRNA decay
same,"acetyl-lysine protein bands in polysomes, including band co-migrating with RPL24","[2]; 1 μM TSA, 2 h, western blot",several TSA-induced bands
same,total RPL24 levels,"[2]; 1 μM TSA, 2 h, western blot",not altered
same,"ribosomal protein acetylation, including the band that co-migrates with RPL24","[2]; western blot of ribopellets (FIG. 4c,d)",induce
